Test results as given in PubChem BioAssay (NCI).
Where “and” joins values, the source holds several entries; their conditions need not be identical. Equal entries are not always repeated.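 The compound was tested at five concentrations on cells cultured in 96-well plates, with a 48-hour exposure period. At the GI50, growth is halved. TGI: total growth inhibition.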

What was measured:
Experiment in all cases: NCI tumour cell line growth inhibition, 48 h
786-0 renal = system: 786-0 renal
A498 renal = system: A498 renal
K-562 leukemia = system: K-562 leukemia
UO-31 renal = system: UO-31 renal
NCI-H460 lung = system: NCI-H460 lung
CCRF-CEM leukemia = system: CCRF-CEM leukemia
OVCAR-5 ovarian = system: OVCAR-5 ovarian
NCI-H522 lung = system: NCI-H522 lung

SMILES	GI50 (786-0 renal)	TGI (786-0 renal)	GI50 (A498 renal)	TGI (A498 renal)	GI50 (K-562 leukemia) [µM]	TGI (K-562 leukemia) [µM]	GI50 (UO-31 renal)	TGI (UO-31 renal)	GI50 (NCI-H460 lung)	TGI (NCI-H460 lung)	GI50 (CCRF-CEM leukemia)	GI50 (OVCAR-5 ovarian) [µM]	TGI (OVCAR-5 ovarian)	GI50 (NCI-H522 lung)	TGI (NCI-H522 lung)	TGI (CCRF-CEM leukemia) [µM]
CC[C@@]1(O)C(=O)NCc2c1cc1n(c2=O)Cc2cc3ccccc3nc2-1	1.63 µM	9.93 µM	3.95 µM	53.1 µM	4.4	> 100	1.77 µM	13.1 µM	0.556 µM	> 59.2 µM	0.253 µM	15.1	> 100 µM	> 22.6 µM	> 100 µM	–
CN1/C(=C\C(I)C(I)C2=[N+](C)c3ccccc3C2(C)C)C(C)(C)c2ccccc21 (configuration not stated)	0.904 µM	16.2 µM	0.178 µM	1.49 µM	0.202	14.6	0.601 µM	9.75 µM	0.205 µM	10.7 µM	0.226 µM	1.25	> 70.5 µM	0.257 µM	10.2 µM	31
O=C(c1ccccc1Nc1ccnc(C(F)(F)F)c1)N1CCN(c2cccc(Cl)c2)CC1	23.2 µM	> 84 µM	12.7 µM	46.3 µM	19.2	> 100	13.7 µM	68.1 µM	17.6 µM	44.6 µM	11.2 µM	27.9	> 86.4 µM	15.4 µM	63.5 µM	> 84.5
CC(=O)OCC1OC(OC2C(COC(C)=O)OC(OCCC[S-])C(OC(C)=O)C2OC(C)=O)C(OC(C)=O)C(OC(C)=O)C1OC(C)=O.[Au+].c1ccc(CN2[CH-]N(Cc3ccccc3)C(c3ccccc3)=C2c2ccccc2)cc1 (configuration not stated)	2.8 µM	8.56 µM	3.41 µM	11.1 µM	3.27	14.5	2.61 µM	10.7 µM	3.45 µM	12.8 µM	3.39 µM	5.67	27 µM	1.72 µM	4.55 µM	21.5
C/C(=C\c1ccc(Cl)cc1)C(C)(C)C(=O)O	–	> 100 µM	–	> 100 µM	–	> 100	–	> 100 µM	–	> 100 µM	–	–	> 100 µM	–	> 100 µM	> 100
COc1ccccc1/C=C\c1cnnc2ccccc12	–	> 10 µM	–	> 10 µM	–	> 10	–	–	–	> 10 µM	–	–	> 10 µM	–	> 10 µM	> 10
Nc1ccc(-c2nc3ccc4[nH]ncc4c3c3c2CCCC3)cc1F	1.6 µM	10.3 µM	0.636 µM	3.24 µM	1.98	22.8	1.01 µM	5.53 µM	0.959 µM	8.51 µM	1.5 µM	2.42	23 µM	0.989 µM	6.93 µM	12.2
O=c1[nH]cc(CS(=O)(=O)Cc2c[nH]c(=O)[nH]c2=O)c(=O)[nH]1	–	> 100 µM	–	> 100 µM	–	> 100	–	> 100 µM	–	> 100 µM	–	–	> 100 µM	–	> 100 µM	–
COc1ccc(OC)c(-c2nc3sccn3c2/C=C2/C(=O)Nc3ccc(Cl)cc32)c1	44.7 µM	> 100 µM	20.8 µM	38.8 µM	29.9	> 100	23.6 µM	81.8 µM	26 µM	65 µM	32.1 µM	30	> 100 µM	21.5 µM	51.6 µM	> 100
CC1(C)CCC[C@]23C(=O)O[C@](O)(C(=O)C4=C[C@@](C)(/C=C/CCCc5ccc6ccc7cccc8ccc5c6c78)CC[C@@]42O)[C@@H]13	0.182 µM	0.343 µM	0.15 µM	0.288 µM	0.3	3.19	0.156 µM	0.291 µM	0.18 µM	0.374 µM	0.199 µM	0.187	0.376 µM	0.2 µM	0.475 µM	5.87
CCSc1oc(-c2ccccc2)nc1[P+](c1ccccc1)(c1ccccc1)c1ccccc1	0.376 µM	2.11 µM	0.126 µM	0.579 µM	0.152	3.45	0.321 µM	1.38 µM	0.298 µM	1.08 µM	0.32 µM	0.416	6.36 µM	0.261 µM	1.09 µM	3.21
O=C1c2ccccc2C(=O)c2c1ccc(C(Br)Br)c2[N+](=O)[O-]	1.85 µM	3.45 µM	1.67 µM	7.73 µM	–	–	1.52 µM	2.93 µM	1.89 µM	5.09 µM	0.582 µM	1.72	4.4 µM	1.84 µM	3.46 µM	2.53
COc1ccc(-c2ccc3c(NC(=O)C4CC4)n[nH]c3n2)cc1	> 20.1 µM	> 25 µM	> 25 µM	> 25 µM	> 25	> 25	> 20 µM	> 25 µM	> 25 µM	> 25 µM	> 25 µM	> 25	> 25 µM	> 22.9 µM	> 25 µM	> 25
C=C(CN1CCN(c2ccccc2OC)CC1)c1ccc(C(=O)Nc2ccccc2N)cc1	2.45 µM	29.1 µM	–	–	> 50	> 50	7.93 µM	16.4 µM	17.5 µM	> 50 µM	–	7.56	22.8 µM	–	–	–
CCOC1OCCCC1Br (configuration not stated)	–	> 100 µM	–	> 100 µM	–	> 100	–	> 100 µM	–	> 100 µM	–	–	> 100 µM	–	> 100 µM	> 100
CCN(CC)CCN1C(=O)c2c(c(C)c3c(oc4cc(O)ccc43)c2C)C1=O	1.62 µM	3.2 µM	1.69 µM	3.12 µM	2.3	> 100	1.48 µM	2.81 µM	1.75 µM	3.37 µM	2.23 µM	1.66	3.04 µM	2.11 µM	4.71 µM	6.25
O=C(O)c1c(O)c2cc(Br)ccc2oc1=O	–	> 100 µM	–	> 100 µM	–	> 100	–	–	–	> 100 µM	–	–	> 100 µM	–	> 100 µM	> 100
CC(CN=C(CC(=O)c1ccc(Br)cc1)c1ccccc1)N=C(CC(=O)c1ccc(Br)cc1)c1ccccc1 (configuration not stated)	4.2 µM	> 100 µM	38.8 µM	> 100 µM	> 100	> 100	1.66 µM	> 100 µM	5.38 µM	> 100 µM	20.1 µM	> 100	> 100 µM	5.53 µM	> 100 µM	> 100

SMILES	GI50 (786-0 renal)	TGI (786-0 renal)	GI50 (A498 renal)	TGI (A498 renal)	GI50 (K-562 leukemia) [µM]	TGI (K-562 leukemia) [µM]	GI50 (UO-31 renal)	TGI (UO-31 renal)	GI50 (NCI-H460 lung)	TGI (NCI-H460 lung)	GI50 (CCRF-CEM leukemia)	GI50 (OVCAR-5 ovarian) [µM]	TGI (OVCAR-5 ovarian)	GI50 (NCI-H522 lung)	TGI (NCI-H522 lung)	TGI (CCRF-CEM leukemia) [µM]
COc1cc(C)c(C(=O)O[C@H]2[C@H](O[C@H]3[C@@H](O)COC(O[C@H]4C[C@H]5[C@@H]6CC=C7C[C@@H](O)CC[C@]7(C)[C@H]6CC[C@]5(C)[C@H]4[C@H](C)C(=O)CCC(C)C)[C@@H]3OC(C)=O)OC[C@@H](O)[C@@H]2O)c(C)c1 (some centres not stated)	< 0.01 µM	2.55 µM	< 0.01 µM	< 0.01 µM	< 0.01	7.47	< 0.01 µM	0.0584 µM	< 0.01 µM	1.74 µM	< 0.01 µM	0.58	18.5 µM	< 0.01 µM	0.334 µM	0.102
COc1ccc(-c2oc(=O)ccc2C#Cc2cc(OC)c(OC)c(OC)c2)cc1O	24.8 µM	> 100 µM	30 µM	76.8 µM	13.8	> 100	30.9 µM	> 100 µM	15.7 µM	62.9 µM	2.79 µM	> 100	> 100 µM	8.7 µM	37.5 µM	> 100
COC(=O)c1c[nH]c(=O)[nH]c1=O	–	> 100 µM	–	–	–	> 100	–	> 100 µM	–	> 100 µM	–	–	> 100 µM	–	> 100 µM	> 100
C[C@]12O[C@H](C[C@]1(O)CO)n1c3ccccc3c3c4c(c5c6ccccc6n2c5c31)CNC4=O	0.197 µM and 0.213 µM	1.45 µM and 1.89 µM	0.013 µM and 0.0148 µM	0.114 µM and 0.0943 µM	–	> 100	0.0238 µM and 0.0286 µM	1.08 µM and 1.29 µM	0.11 µM and 0.12 µM	1.63 µM and 1.78 µM	0.0501 µM and 0.0461 µM	0.114	> 10 µM and 4.79 µM	0.0374 µM and 0.135 µM	1.5 µM and 2.06 µM	–
S=c1nc(-c2nc(=S)[nH]c3c2CCCCCCCCCC3)c2c([nH]1)CCCCCCCCCC2	–	> 100 µM	–	> 100 µM	–	> 100	–	> 100 µM	–	> 100 µM	–	–	> 100 µM	–	> 100 µM	–
O=P(Oc1ccc(Cl)cc1)(Oc1ccc(Cl)cc1)N1CC1	–	> 10 µM	–	> 10 µM	–	> 10	–	> 10 µM	–	> 10 µM	–	–	> 10 µM	–	–	0.429
C(=N\Nc1nnc2c(n1)[nH]c1ccccc12)/c1cccnc1	–	> 100 µM	–	> 100 µM	–	> 100	–	> 100 µM	–	> 100 µM	–	–	> 100 µM	–	> 100 µM	–
CN(C)CCCNc1nn2c(=O)c3ccccc3nc2c2ccccc12	10.9 µM	23.7 µM	9.06 µM	21.4 µM	9.94	31.8	3.55 µM	18.2 µM	3.35 µM	13.6 µM	13.7 µM	12.8	34.3 µM	2.14 µM	24 µM	48.5
O=C(/C=C/c1ccc(C(F)(F)F)cc1)c1ccc(Nc2nc(NCCO)nc(NCCO)n2)cc1	3.12 µM	10.9 µM	8.85 µM	21.2 µM	2.84	8.89	1.54 µM	4.33 µM	3.23 µM	10.6 µM	3.24 µM	2.85	14.1 µM	2.15 µM	6.66 µM	10.7
COc1ccc(C2OC(=O)c3c2ccc2ccccc32)c(C)c1 (configuration not stated)	–	18.1 µM	–	21.2 µM	–	> 100	–	> 100 µM	–	> 100 µM	–	–	> 100 µM	–	–	–
CCOC(=O)c1sc(-c2ccc(OS(=O)(=O)c3cccs3)c(C=O)c2)nc1C	1.86 µM	4.54 µM	1.58 µM	3.18 µM	0.574	> 100	1.73 µM	5.13 µM	2.22 µM	4.96 µM	2.16 µM	–	–	1.51 µM	3.43 µM	5.38
Nc1[nH]c(=O)ncc1F	–	> 100 µM	–	> 100 µM	–	> 100	–	> 100 µM	–	> 100 µM	–	–	> 100 µM	–	> 100 µM	–
CC(=O)NS(=O)(=O)c1ccc(NC(=O)COC(=O)c2cccc3c(=O)c4ccccc4[nH]c23)cc1	–	> 100 µM	–	–	–	> 100	–	> 100 µM	–	> 100 µM	–	–	–	–	> 100 µM	> 100
COc1ccc(SC2c3cc(OC)c(OC)cc3Oc3nc(N)c(C#N)c(N)c32)cc1 (configuration not stated)	0.493 µM	1.73 µM	1.42 µM	2.85 µM	–	–	1.34 µM	2.61 µM	1.66 µM	4.38 µM	–	1.75	3.39 µM	1.37 µM	2.77 µM	–
CN(C)c1ccc(/C=C2\C[C@H]3[C@@H]4CC=C5C[C@@H](N6CCCC6)CC[C@]5(C)[C@H]4CC[C@]3(C)[C@H]2O)cc1	1.84 µM	1.29 µM and 3.73 µM	2.89 µM	2.1 µM and 8.92 µM	2.36	–	1.96 µM	1.62 µM and 4.25 µM	2.37 µM	5.08 µM and 5.52 µM	–	14.1	13 µM and 57.2 µM	–	2.25 µM	–
Cn1c2ccccc2c(=Nc2ccccc2)c2c3ccccc3[nH]c21	1.33 µM	2.63 µM	1.34 µM	3.08 µM	1.84	15.7	1.93 µM	> 100 µM	0.41 µM	1.49 µM	–	7.6	59.9 µM	2.29 µM	> 100 µM	–
CC(=O)Oc1ccc(OC(C)=O)c2ccccc12	16.6 µM	30.5 µM	19.2 µM	48.4 µM	3.39	22	2.14 µM	16.1 µM	29.1 µM	> 100 µM	–	17.5	31.7 µM	2.04 µM	5.41 µM	–
